Reference: PubChem BioAssay (NCI)
“And” between values parts separate entries of the source, which are not always exact repeats. Equal entries are not always repeated.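 All cell lines were grown in 96-well plates and treated with compound for 48 hours. GI50: concentration for 50% inhibition of growth. TGI is the concentration that stops growth completely.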

Key:
Experiment in all cases: NCI tumour cell line growth inhibition, 48 h
DU-145 prostate = tested on: DU-145 prostate
MDA-N = tested on: MDA-N
U251 CNS = tested on: U251 CNS
786-0 renal = tested on: 786-0 renal
DLD-1 colon = tested on: DLD-1 colon
OVCAR-8 ovarian = tested on: OVCAR-8 ovarian
DMS 114 small cell lung = tested on: DMS 114 small cell lung
SNB-19 CNS = tested on: SNB-19 CNS
MDA-MB-435 = tested on: MDA-MB-435
HCC-2998 colon = tested on: HCC-2998 colon
M14 melanoma = tested on: M14 melanoma
UO-31 renal = tested on: UO-31 renal
COLO 205 colon = tested on: COLO 205 colon
OVCAR-5 ovarian = tested on: OVCAR-5 ovarian
HCT-15 colon = tested on: HCT-15 colon
PC-3 prostate = tested on: PC-3 prostate
LOX IMVI melanoma = tested on: LOX IMVI melanoma
NCI-H522 lung = tested on: NCI-H522 lung
SK-OV-3 ovarian = tested on: SK-OV-3 ovarian
HT29 colon = tested on: HT29 colon
IGROV1 ovarian = tested on: IGROV1 ovarian
A549 NSCLC = tested on: A549 NSCLC
HS 578T breast = tested on: HS 578T breast
MCF7 breast = tested on: MCF7 breast
HCT-116 colon = tested on: HCT-116 colon
UACC-257 melanoma = tested on: UACC-257 melanoma
KM20L2 colon = tested on: KM20L2 colon
SF-295 CNS = tested on: SF-295 CNS
NCI-H23 lung = tested on: NCI-H23 lung
MALME-3M melanoma = tested on: MALME-3M melanoma
SK-MEL-28 melanoma = tested on: SK-MEL-28 melanoma
LXFL 529 NSCLC = tested on: LXFL 529 NSCLC
SW-620 colon = tested on: SW-620 colon
T-47D breast = tested on: T-47D breast
DMS 273 small cell lung = tested on: DMS 273 small cell lung
SF-539 CNS = tested on: SF-539 CNS
NCI-H226 lung = tested on: NCI-H226 lung
M19-MEL melanoma = tested on: M19-MEL melanoma
A498 renal = tested on: A498 renal
OVCAR-3 ovarian = tested on: OVCAR-3 ovarian
RXF 393 renal = tested on: RXF 393 renal
UACC-62 melanoma = tested on: UACC-62 melanoma
SN12C renal = tested on: SN12C renal
SK-MEL-5 melanoma = tested on: SK-MEL-5 melanoma
HOP-62 NSCLC = tested on: HOP-62 NSCLC
HOP-92 NSCLC = tested on: HOP-92 NSCLC
BT-549 breast = tested on: BT-549 breast
OVCAR-4 ovarian = tested on: OVCAR-4 ovarian
NCI-H460 lung = tested on: NCI-H460 lung
ACHN renal = tested on: ACHN renal
CAKI-1 renal = tested on: CAKI-1 renal
EKVX NSCLC = tested on: EKVX NSCLC
SK-MEL-2 melanoma = tested on: SK-MEL-2 melanoma
XF 498 CNS = tested on: XF 498 CNS
SNB-78 CNS = tested on: SNB-78 CNS
NCI/ADR-RES ovarian = tested on: NCI/ADR-RES ovarian
SF-268 CNS = tested on: SF-268 CNS
MDA-MB-231 breast = tested on: MDA-MB-231 breast
TK-10 renal = tested on: TK-10 renal
CCRF-CEM leukemia = tested on: CCRF-CEM leukemia
SNB-75 CNS = tested on: SNB-75 CNS
KM12 colon = tested on: KM12 colon
RXF-631 renal = tested on: RXF-631 renal
SR leukemia = tested on: SR leukemia
MOLT-4 leukemia = tested on: MOLT-4 leukemia
RPMI-8226 leukemia = tested on: RPMI-8226 leukemia
K-562 leukemia = tested on: K-562 leukemia
HL-60(TB) leukemia = tested on: HL-60(TB) leukemia

## CNCCCNc1c2ccccc2nc2cccc([N+](=O)[O-])c12
DU-145 prostate
  TGI: 19.2 nM
MDA-N
  TGI: 3.09 nM
U251 CNS
  TGI: 51.9 nM
786-0 renal
  TGI: 24.7 nM
DLD-1 colon
  TGI: 26.4 nM
OVCAR-8 ovarian
  TGI: 20.5 nM
DMS 114 small cell lung
  TGI: 10.8 nM
SNB-19 CNS
  TGI: 30.9 nM and 130 nM
MDA-MB-435
  TGI: 3.24 nM
HCC-2998 colon
  TGI: 17.3 nM
M14 melanoma
  TGI: 8.46 nM
UO-31 renal
  GI50: 15.8 nM
  TGI: 24.1 nM and 68.2 nM
COLO 205 colon
  TGI: 5.86 nM
OVCAR-5 ovarian
  TGI: 22 nM
HCT-15 colon
  TGI: 20.7 nM and 11.6 nM
PC-3 prostate
  TGI: 4.89 nM
LOX IMVI melanoma
  TGI: 16 nM
NCI-H522 lung
  TGI: 2.2 nM
SK-OV-3 ovarian
  TGI: 42.7 nM
HT29 colon
  TGI: 18.5 nM
IGROV1 ovarian
  TGI: 20.1 nM and 27.9 nM
A549 NSCLC
  TGI: 5.87 nM and 10.6 nM
HS 578T breast
  TGI: 8.26 nM
MCF7 breast
  TGI: 89 nM
HCT-116 colon
  TGI: 17 nM and 10.8 nM
UACC-257 melanoma
  TGI: 49.5 nM
KM20L2 colon
  TGI: 45.8 nM
SF-295 CNS
  TGI: 27.9 nM
NCI-H23 lung
  TGI: 5.64 nM
MALME-3M melanoma
  TGI: 9.97 nM
SK-MEL-28 melanoma
  TGI: 27.9 nM and 13.8 nM
LXFL 529 NSCLC
  TGI: 28.8 nM
SW-620 colon
  TGI: 35.7 nM and 10.1 nM
T-47D breast
  TGI: 13.9 nM
DMS 273 small cell lung
  TGI: 46.5 nM
SF-539 CNS
  TGI: 16.3 nM and 17.2 nM
NCI-H226 lung
  TGI: 52.1 nM
M19-MEL melanoma
  TGI: 17.1 nM
A498 renal
  TGI: 7.51 nM
OVCAR-3 ovarian
  TGI: 14.9 nM
RXF 393 renal
  TGI: 2.17 nM
UACC-62 melanoma
  TGI: 9.42 nM
SN12C renal
  TGI: < 31.8 nM and 18.1 nM
SK-MEL-5 melanoma
  TGI: 9.82 nM
HOP-62 NSCLC
  TGI: 12.9 nM
HOP-92 NSCLC
  TGI: 4.23 nM
BT-549 breast
  TGI: 10.1 nM
OVCAR-4 ovarian
  TGI: 5.43 nM
NCI-H460 lung
  TGI: 2.21 nM and 10.3 nM
ACHN renal
  TGI: 15.2 nM
CAKI-1 renal
  TGI: 27.1 nM
EKVX NSCLC
  TGI: 22.6 nM and 38.9 nM
SK-MEL-2 melanoma
  TGI: 7.98 nM
XF 498 CNS
  TGI: 7.24 nM
SNB-78 CNS
  TGI: 12.4 nM and 13.1 nM
NCI/ADR-RES ovarian
  TGI: 34.6 nM
SF-268 CNS
  TGI: 16.6 nM and 21.1 nM
MDA-MB-231 breast
  TGI: 5.22 nM
TK-10 renal
  TGI: 32.7 nM
CCRF-CEM leukemia
  TGI: 14.3 nM
SNB-75 CNS
  TGI: 14.2 nM
KM12 colon
  TGI: 67.7 nM

## CCC(=O)C(C(=O)CC)c1c(OC(=O)c2ccccc2)ccc(O)c1C(=O)OC
RXF-631 renal
  TGI: > 100 µM
U251 CNS
  TGI: > 100000 nM
786-0 renal
  TGI: > 100000 nM
OVCAR-8 ovarian
  TGI: > 100000 nM
SNB-19 CNS
  TGI: > 100000 nM
M14 melanoma
  TGI: > 100000 nM
UO-31 renal
  TGI: > 100000 nM
COLO 205 colon
  TGI: > 100000 nM
OVCAR-5 ovarian
  TGI: > 100000 nM
SR leukemia
  TGI: > 100 µM
HCT-15 colon
  TGI: > 100000 nM
LOX IMVI melanoma
  TGI: > 100000 nM
NCI-H522 lung
  TGI: > 100000 nM
SK-OV-3 ovarian
  TGI: > 100000 nM
HT29 colon
  TGI: > 100000 nM
IGROV1 ovarian
  TGI: > 100000 nM
A549 NSCLC
  TGI: > 100000 nM
HCT-116 colon
  TGI: > 100000 nM
UACC-257 melanoma
  TGI: > 100000 nM
KM20L2 colon
  TGI: > 100000 nM
SF-295 CNS
  TGI: > 100000 nM
NCI-H23 lung
  TGI: > 100000 nM
SK-MEL-28 melanoma
  TGI: > 100000 nM
LXFL 529 NSCLC
  TGI: > 100000 nM
SW-620 colon
  TGI: > 100000 nM
DMS 273 small cell lung
  TGI: > 100000 nM
SF-539 CNS
  TGI: > 100000 nM
NCI-H226 lung
  TGI: > 100000 nM
MOLT-4 leukemia
  TGI: > 100 µM
M19-MEL melanoma
  TGI: > 100000 nM
A498 renal
  TGI: > 100000 nM
OVCAR-3 ovarian
  TGI: > 100000 nM
RPMI-8226 leukemia
  TGI: > 100 µM
RXF 393 renal
  TGI: > 100000 nM
UACC-62 melanoma
  TGI: > 100000 nM
SN12C renal
  TGI: > 100000 nM
SK-MEL-5 melanoma
  TGI: > 100000 nM
HOP-62 NSCLC
  TGI: > 100000 nM
HOP-92 NSCLC
  TGI: > 100000 nM
OVCAR-4 ovarian
  TGI: > 100000 nM
NCI-H460 lung
  TGI: > 100000 nM
ACHN renal
  TGI: > 100000 nM
CAKI-1 renal
  TGI: > 100000 nM
K-562 leukemia
  TGI: > 100 µM
EKVX NSCLC
  TGI: > 100000 nM
SK-MEL-2 melanoma
  TGI: > 100000 nM
XF 498 CNS
  TGI: > 100000 nM
SNB-78 CNS
  TGI: > 100000 nM
SF-268 CNS
  TGI: > 100000 nM
TK-10 renal
  TGI: > 100000 nM
HL-60(TB) leukemia
  TGI: > 100 µM
CCRF-CEM leukemia
  TGI: > 100000 nM
SNB-75 CNS
  TGI: > 100000 nM
KM12 colon
  TGI: > 100000 nM
